Measured values as given in patent US12655116B2, “Substituted isophthalic acid diamides” (Bayer Aktiengesellschaft, priority 2020, dated 2026).

Tests used:
DIGSA [1] = assay: Pre-emergence herbicidal action against DIGSA; format: in vivo, Digitaria sanguinalis
Source text: (§1) Seeds of monocotyledonous and dicotyledonous weed plants and crop plants are laid out in sandy loam soil in wood-fiber pots and covered with soil. The compounds of the invention, formulated in the form of wettable powders (WP) or as emulsion concentrates (EC), are then applied to the surface of the covering soil in the form of an aqueous suspension or emulsion at a water application rate equivalent to 600 to 800 l/ha, with addition of 0.2% wetting agent. After the treatment, the pots are placed in a greenhouse and kept under good growth conditions for the trial plants. The damage to the test plants is scored visually after a test period of 3 weeks by comparison with untreated controls (herbicidal activity in percent (%): 100% activity=the plants have died, 0% activity=like control plants). […] The tables below illustrate, in an illustrative manner, the post-emergence herbicidal action of the compounds of the invention, the herbicidal activity being stated in percent.

DIGSA [2] = assay: Post-emergence herbicidal action against DIGSA; format: in vivo, Digitaria sanguinalis; details: for Post-emergence action against DIGSA: 20 g/ha; for Post-emergence action against DIGSA in %: 5 g/ha
Protocol: (§2) Seeds of monocotyledonous and dicotyledonous weed and crop plants are laid out in sandy loam soil in wood-fiber pots, covered with soil and cultivated in a greenhouse under good growth conditions. 2 to 3 weeks after sowing, the test plants are treated at the one-leaf stage. The compounds of the invention, formulated in the form of wettable powders (WP) or as emulsion concentrates (EC), are then sprayed onto the green parts of the plants in the form of an aqueous suspension or emulsion at a water application rate equivalent to 600 to 800 l/ha, with addition of 0.2% wetting agent. After the test plants have been left to stand in the greenhouse under optimal growth conditions for about 3 weeks, the action of the preparations is assessed visually in comparison to untreated controls (herbicidal action in percent (%): 100% activity=the plants have died, 0% activity=like control plants). […] The tables below illustrate, in an illustrative manner, the post-emergence herbicidal action of the compounds of the invention, the herbicidal activity being stated in percent.

AMARE [3] = assay: Pre-emergence herbicidal action against AMARE; format: in vivo, Amaranthus retroflexus
Source text: as §1

AMARE [4] = assay: Post-emergence herbicidal action against AMARE; format: in vivo, Amaranthus retroflexus; details: 20 g/ha, visual assessment about 3 weeks after treatment, 100% = plants have died, 0% = like control plants
Protocol: as §2

VIOTR [5] = assay: Pre-emergence herbicidal action against VIOTR; format: in vivo, Viola tricolor; details: dosage 80 g/ha
Source text: as §1

ECHCG [6] = assay: Pre-emergence herbicidal action against ECHCG; format: in vivo, Echinochloa crus-galli; details: 80 g/ha
Source text: as §1

ABUTH [7] = assay: Pre-emergence herbicidal action against ABUTH; format: in vivo, Abutilon theophrasti; details: for Pre-emergence action against ABUTH (herbicidal activity): 80 g/ha, scored visually after 3 weeks vs untreated controls (100% = plants have died, 0% = like control plants)
Source text: as §1

ABUTH [8] = assay: Post-emergence herbicidal action against ABUTH; format: in vivo, Abutilon theophrasti; details: visual assessment about 3 weeks after treatment vs untreated controls
Protocol: as §2

ECHCG [9] = assay: Post-emergence herbicidal action against ECHCG; format: in vivo, Echinochloa crus-galli
Protocol: as §2

SETVI [10] = assay: Pre-emergence herbicidal action against SETVI; format: in vivo, Setaria viridis; details: dosage 80 g/ha
Source text: as §1

MATIN = assay: Pre-emergence herbicidal action against MATIN; format: in vivo, Matricaria inodora
Source text: as §1

SETVI [11] = assay: Post-emergence herbicidal action against SETVI; format: in vivo, Setaria viridis
Protocol: as §2

AVEFA = assay: Pre-emergence herbicidal action against AVEFA; format: in vivo, Avena fatua; details: 80 g/ha, pre-emergence
Source text: as §1

ALOMY = assay: Pre-emergence herbicidal action against ALOMY; format: in vivo, Alopecurus myosuroides; details: 80 g/ha, pre-emergence, scored visually after 3 weeks vs untreated controls (100% = plants have died, 0% = like control plants)
Source text: as §1

PHBPU = assay: Post-emergence herbicidal action against PHBPU; format: in vivo, Pharbitis purpurea; details: dosage 20 g/ha
Protocol: as §2

VIOTR [12] = assay: Post-emergence herbicidal action against VIOTR; format: in vivo, Viola tricolor; details: 20 g/ha
Protocol: as §2

VERPE = assay: Pre-emergence herbicidal action against VERPE; format: in vivo, Veronica persica
Source text: as §1

[13] = 20 g/ha, scored visually after 3 weeks vs untreated controls, 100% = plants have died, 0% = like control plants
[14] = 80 g/ha, scored visually after 3 weeks vs untreated controls (100% = plants have died, 0% = like control plants)

Compound | Pre-emergence action against DIGSA in % (DIGSA [1]; dosage 20 g/ha) [%] | Pre-emergence action against DIGSA in % (DIGSA [1]; dosage 80 g/ha) [%] | Post-emergence action against DIGSA (DIGSA [2]) [%] | Pre-emergence action against AMARE in % (AMARE [3]; [13]) [%] | Pre-emergence action against AMARE in % (AMARE [3]; [14]) [%] | Post-emergence action at 20 g/ha against AMARE in % (AMARE [4]) [%] | Pre-emergence action against VIOTR in % (VIOTR [5]) [%] | Pre-emergence action against ECHCG in % (ECHCG [6]) [%] | Pre-emergence action against ABUTH (herbicidal activity) (ABUTH [7]) [%] | Post-emergence action against ABUTH in % (ABUTH [8]; dosage 20 g/ha) [%] | Post-emergence action against ECHCG in % (ECHCG [9]; dosage 20 g/ha) [%] | Pre-emergence action against SETVI in % (SETVI [10]) [%] | Pre-emergence action against MATIN in % (MATIN; dosage 80 g/ha) [%] | Post-emergence action against SETVI in % (SETVI [11]; dosage 20 g/ha) [%] | Pre-emergence action against MATIN in % (MATIN; dosage 20 g/ha) [%] | Post-emergence action against DIGSA in % (DIGSA [2]) [%] | Pre-emergence action against VERPE in % (VERPE; dosage 80 g/ha) [%] | also measured
COCCNC(=O)c1c(C(F)F)ccc(C(=O)Nc2nnc(C)o2)c1Cl [Example 6-262] | 100 | 100 | 90 | 90 | 100 | 90 | 90 | 90 | 100 | 90 | 80 | 100 | 100 | 80 | – | – | – | Post-emergence action against ABUTH in % (ABUTH [8]; dosage 5 g/ha): 80%
CCNC(=O)c1c(C(F)F)ccc(C(=O)Nc2nnc(C)o2)c1SC [Example 6-75] | – | 80 | 90 | – | – | – | – | – | – | – | – | – | – | – | – | – | – | –
Cc1nnc(NC(=O)c2ccc(C(F)F)c(C(=O)NCC(F)(F)F)c2Br)o1 [Example 6-168] | – | – | – | 90 | 100 | 100 | – | 90 | 100 | – | 80 | 90 | 90 | – | 80 | – | – | Pre-emergence action against AVEFA in % (AVEFA): 80%; Post-emergence action against ECHCG in % (ECHCG [9]; dosage 5 g/ha): 80%; Pre-emergence action against ALOMY (herbicidal activity) (ALOMY): 80%
Cc1nnc(NC(=O)c2ccc(C(F)F)c(C(=O)NCC3CC3)c2C)o1 [Example 6-34] | 100 | 100 | 80 | 100 | 100 | 100 | – | 100 | 100 | 80 | 90 | – | 90 | 90 | – | – | – | Post-emergence action against PHBPU in % (PHBPU): 80%; Post-emergence action against ABUTH in % (ABUTH [8]; dosage 5 g/ha): 80%; Post-emergence action against ECHCG in % (ECHCG [9]; dosage 5 g/ha): 80%; Pre-emergence action against ALOMY (herbicidal activity) (ALOMY): 80%
Cc1nnc(NC(=O)c2ccc(C(F)F)c(C(=O)NC3CCC3)c2Cl)o1 [Example 6-261] | 80 | 100 | 90 | 100 | 100 | 90 | – | 100 | 100 | 80 | 90 | 100 | 100 | – | 90 | – | – | Pre-emergence action against ABUTH (herbicidal activity in percent) (ABUTH [7]; dosage 20 g/ha, scored visually after 3 weeks vs untreated controls, 100% = plants have died, 0% = like control plants): 80%
CCc1c(C(=O)Nc2nnc(C)o2)ccc(C(F)(F)F)c1C(=O)NC [Example 6-210] | 100 | 100 | 90 | – | 100 | 100 | 90 | 90 | 100 | 90 | 80 | 100 | 90 | 100 | 80 | 90 | – | Post-emergence action against VIOTR in % (VIOTR [12]): 80%; Post-emergence action against SETVI in % (SETVI [11]; dosage 5 g/ha): 90%
CNC(=O)c1c(C(F)(F)F)ccc(C(=O)Nc2nnc(C)o2)c1OC [Example 6-43] | – | 100 | 100 | – | 100 | – | – | 100 | 100 | – | – | 90 | 80 | 90 | – | 90 | – | –
Cc1c(C(=O)Nc2nnnn2C)ccc(C(F)(F)F)c1C(=O)NCC#N [Example 1-36] | – | – | – | 100 | 100 | 100 | – | – | 100 | – | – | – | – | – | – | – | 90 | –
Cn1nnnc1NC(=O)c1ccc(C(F)F)c(C(=O)NCC#N)c1Cl [Example 1-158] | – | – | – | 100 | 100 | 90 | 90 | – | – | 80 | – | – | – | – | – | – | 80 | Pre-emergence action against VERPE in % (VERPE; dosage 20 g/ha): 80%
CCn1nnnc1NC(=O)c1ccc(C(F)(F)F)c(C(=O)Nc2ccccc2)c1Cl [Example 2-143] | – | – | – | – | 100 | – | 80 | – | 100 | 80 | – | – | 100 | – | 90 | – | 80 | Post-emergence action against PHBPU in % (PHBPU): 80%
CCNC(=O)c1c(C(F)(F)F)ccc(C(=O)Nc2nnc(C)o2)c1OC [Example 6-44] | – | – | 90 | 80 | 100 | 90 | – | 100 | – | 80 | 90 | 90 | 80 | 80 | – | 80 | – | –
COc1c(C(=O)Nc2nnc(C)o2)ccc(C(F)(F)F)c1C(=O)NC1CC1 [Example 6-45] | 90 | 100 | 90 | 80 | 100 | 80 | 90 | 80 | 90 | 90 | 90 | 100 | 90 | 100 | – | 90 | – | Post-emergence action against ABUTH in % (ABUTH [8]; dosage 5 g/ha): 80%
CCn1nnnc1NC(=O)c1ccc(C(F)F)c(C(=O)NCC#N)c1Cl [Example 2-158] | – | – | – | – | 100 | – | 100 | – | 100 | – | – | – | 90 | 90 | – | – | 90 | Pre-emergence action against VERPE in % (VERPE; dosage 20 g/ha): 80%; Post-emergence action against SETVI in % (SETVI [11]; dosage 5 g/ha): 90%
